Key:
Assay in all cases: relative viability (nuclei count vs DMSO), 5 days (fraction); higher = more cells survive
Tozasertib + Navitoclax = compound: Cc1cc(Nc2cc(N3CCN(C)CC3)nc(Sc3ccc(NC(=O)C4CC4)cc3)n2)n[nH]1 [Tozasertib] + CC1(C)CCC(c2ccc(Cl)cc2)=C(CN2CCN(c3ccc(C(=O)NS(=O)(=O)c4ccc(N[C@H](CCN5CCOCC5)CSc5ccccc5)c(S(=O)(=O)C(F)(F)F)c4)cc3)CC2)C1 [Navitoclax] (partner 0.5 µM)
In short: (§1)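 A single step with final 0.05% Triton X-100, 1% formaldehyde and 1 ug/ml Hoechst fixed the cells and stained nuclei 5 days after treatment. Lung cancer cell lines in 1536-well plates had been treated by pin tool the day after seeding with one drug alone or a fixed anchor-drug dose plus five library-drug doses (not always all listed) in √10 steps, and nuclei were counted on 4× images. Relative viability is the ratio of nuclei in treated wells to nuclei in vehicle wells, taken as the median of duplicate plates.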

Tozasertib + Phenformin = compound: Cc1cc(Nc2cc(N3CCN(C)CC3)nc(Sc3ccc(NC(=O)C4CC4)cc3)n2)n[nH]1 [Tozasertib] + N=C(N)NC(=N)NCCc1ccccc1 [Phenformin] (partner 250 µM)
In short: as §1

Tozasertib + Pemetrexed = compound: Cc1cc(Nc2cc(N3CCN(C)CC3)nc(Sc3ccc(NC(=O)C4CC4)cc3)n2)n[nH]1 [Tozasertib] + Nc1nc2[nH]cc(CCc3ccc(C(=O)N[C@@H](CCC(=O)O)C(=O)O)cc3)c2c(=O)[nH]1 [Pemetrexed] (partner 0.2 µM)
In short: as §1

Tozasertib + AZD7762 = compound: Cc1cc(Nc2cc(N3CCN(C)CC3)nc(Sc3ccc(NC(=O)C4CC4)cc3)n2)n[nH]1 [Tozasertib] + NC(=O)Nc1cc(-c2cccc(F)c2)sc1C(=O)N[C@H]1CCCNC1 [AZD7762] (partner 0.2 µM)
In short: as §1

Tozasertib + Bortezomib = compound: Cc1cc(Nc2cc(N3CCN(C)CC3)nc(Sc3ccc(NC(=O)C4CC4)cc3)n2)n[nH]1 [Tozasertib] + CC(C)C[C@H](NC(=O)[C@H](Cc1ccccc1)NC(=O)c1cnccn1)B(O)O [Bortezomib] (partner 0.002 µM)
In short: as §1

Cell Line | relative viability (Tozasertib + Navitoclax; first compound 0.004 µM) | relative viability (Tozasertib + Navitoclax; first compound 0.01265 µM) | relative viability (Tozasertib + Navitoclax; first compound 0.04 µM) | relative viability (Tozasertib + Navitoclax; first compound 0.1265 µM) | relative viability (Tozasertib + Phenformin; first compound 0.004 µM) | relative viability (Tozasertib + Phenformin; first compound 0.01265 µM) | relative viability (Tozasertib + Phenformin; first compound 0.04 µM) | relative viability (Tozasertib + Phenformin; first compound 0.1265 µM) | relative viability (Tozasertib + Pemetrexed; first compound 0.004 µM) | relative viability (Tozasertib + Pemetrexed; first compound 0.01265 µM) | relative viability (Tozasertib + Pemetrexed; first compound 0.04 µM) | relative viability (Tozasertib + Pemetrexed; first compound 0.1265 µM) | relative viability (Tozasertib + AZD7762; first compound 0.004 µM) | relative viability (Tozasertib + AZD7762; first compound 0.01265 µM) | relative viability (Tozasertib + AZD7762; first compound 0.04 µM) | relative viability (Tozasertib + AZD7762; first compound 0.1265 µM) | relative viability (Tozasertib + Bortezomib; first compound 0.004 µM) | relative viability (Tozasertib + Bortezomib; first compound 0.01265 µM) | relative viability (Tozasertib + Bortezomib; first compound 0.04 µM) | relative viability (Tozasertib + Bortezomib; first compound 0.1265 µM)
NCI-H1355 | 0.867 | 0.917 | 1.15 | 0.768 | 0.469 | 0.424 | 0.459 | 0.367 | 1.12 | 0.974 | 1.03 | 0.948 | 0.76 | 0.698 | 0.77 | 0.661 | 1.19 | 1.15 | 1.27 | 0.606
NCI-H1437 | 1.05 | 0.974 | 1.09 | 0.87 | 0.312 | 0.301 | 0.297 | 0.2 | 0.302 | 0.292 | 0.328 | 0.296 | 1.14 | 1.16 | 1.01 | 1.14 | 0.757 | 0.509 | 0.55 | 0.31
NCI-H1651 | 1.17 | 1.05 | 1.18 | 1.07 | 0.319 | 0.339 | 0.316 | 0.267 | 0.593 | 0.615 | 0.582 | 0.433 | 0.469 | 0.464 | 0.498 | 0.422 | 1.05 | 0.851 | 0.979 | 0.885
NCI-H1666 | 0.948 | 0.863 | 0.918 | 0.87 | 0.605 | 0.558 | 0.562 | 0.464 | 0.843 | 0.921 | 0.846 | 0.816 | 0.941 | 0.761 | 0.903 | 0.671 | 0.772 | 0.748 |  | 0.434
NCI-H1734 | 0.851 | 0.761 | 0.834 | 0.504 | 0.41 | 0.432 | 0.374 | 0.241 | 0.424 | 0.351 | 0.453 | 0.436 | 0.506 | 0.559 | 0.532 | 0.228 | 0.833 | 0.998 | 1.07 | 0.464
NCI-H1755 | 0.978 | 0.977 | 1.02 | 0.875 | 0.593 | 0.597 | 0.592 | 0.483 | 0.376 | 0.42 | 0.401 | 0.4 | 0.46 | 0.432 | 0.406 | 0.445 | 0.938 | 0.927 | 1.04 | 0.626
NCI-H1792 | 0.681 | 0.481 |  | 0.418 | 0.325 |  | 0.423 | 0.209 | 0.928 | 0.616 | 0.895 | 0.515 | 0.902 | 0.588 | 0.904 | 0.69 | 0.771 | 0.88 | 1.1 | 0.96
NCI-H1915 | 0.767 | 0.765 | 0.773 | 0.623 | 0.381 | 0.324 | 0.336 | 0.321 | 0.46 | 0.477 | 0.474 | 0.412 | 0.75 | 0.718 | 0.659 | 0.493 | 1.07 | 0.924 | 0.953 | 0.727
NCI-H1975 | 1.14 | 1.2 | 1.23 | 1.1 | 0.444 | 0.432 | 0.428 | 0.366 | 0.317 | 0.289 | 0.307 | 0.272 | 0.93 | 0.672 | 0.727 | 0.612 | 0.319 | 0.408 |  | 0.338
NCI-H1993 | 0.901 | 0.884 | 0.927 | 0.651 | 0.527 | 0.482 | 0.481 | 0.486 | 0.587 | 0.605 | 0.634 | 0.476 | 0.708 | 0.761 | 0.837 | 0.542 | 1.06 | 1.05 | 1.33 | 0.805
NCI-H2085 | 1.14 | 1.12 | 1.13 | 0.816 | 0.759 | 0.744 | 0.731 |  | 0.935 | 0.815 | 1.03 | 0.802 | 0.928 | 0.906 | 0.971 | 0.929 | 1.01 | 1.07 | 1.11 | 0.792
NCI-H2087 | 1.01 | 0.872 | 1.1 | 0.644 | 0.487 | 0.443 | 0.539 | 0.344 | 0.72 | 0.698 | 0.671 | 0.688 | 1.13 | 1.24 | 1.33 | 1.01 | 0.83 | 0.787 | 0.78 | 0.723
NCI-H2126 | 0.842 | 0.802 | 0.963 | 0.865 | 0.604 | 0.562 | 0.467 | 0.51 | 0.688 | 0.736 |  | 0.729 | 1.01 |  | 1.05 | 1.02 | 1.12 | 1.1 | 1.22 | 1.14
NCI-H2347 | 0.921 | 0.761 | 0.901 | 0.755 | 0.45 |  | 0.433 | 0.377 | 0.44 | 0.461 | 0.45 | 0.432 | 0.686 | 0.686 | 0.835 | 0.75 | 1.18 | 0.961 | 1 | 0.658
NCI-H2405 | 0.795 | 0.95 | 0.671 | 0.871 | 0.392 | 0.402 | 0.424 | 0.408 | 1.01 | 1.12 | 0.973 | 0.894 | 0.753 |  | 0.612 | 0.547 | 1.05 | 0.944 | 0.96 | 0.826
NCI-H3122 | 0.996 | 1 | 1.04 | 1.05 | 0.38 | 0.346 | 0.366 | 0.312 | 0.193 | 0.214 | 0.191 | 0.218 | 1 | 0.952 | 1.06 | 1.07 | 1.01 | 0.994 | 1.01 | 1.02
